This note sets out measurements from ChEMBL document CHEMBL1152101, “Boric acid effect ont he hydrolysis of 4-nitrophenyl 2,3-dihydroxybenzoate: mimic of borate inhibition of serine proteases” (Bioorg Med Chem Lett, 1993).

Data set [1] can be described thus: Hydrolysis rate constant was determined. Type of data set: ADME.
Data set [2] can be described thus: Tested for hydrolysis in presence of phenylboronic acid, dissociation constant was evaluated at the pH 9.5(Apparent inhibition constant). Type of data set: ADME.
Data set [3] is described as follows: pKa value was determined. Type of data set: physicochemical.
A short description of data set [4]: Tested for hydrolysis in presence of boric acid, rate constant was evaluated at the pH 8.5. Type of data set: ADME. The following applies: buffer.
Data set [5] can be described thus: Tested for hydrolysis in presence of boric acid, dissociation constant was evaluated at the pH 9.5(Apparent inhibition constant). Type of data set: ADME.
Data set [6] can be described thus: Tested for hydrolysis in presence of boric acid, dissociation constant was evaluated at the pH 8.5(Apparent inhibition constant). Type of data set: ADME.
Data set [7] concerns the target T1, Chymotrypsinogen A (Bos taurus, UniProt P00766). The data set is described as follows: Tested for inhibition of hydrolysis in presence of alpha-chymotrypsin and […](Apparent inhibition constant).
Data set [8] deals with T1, Chymotrypsinogen A. The data set is described as follows: Tested for inhibition of hydrolysis in presence of alpha-chymotrypsin and phenylboronic acid(Apparent inhibition constant).
Data set [9] can be described thus: Tested for hydrolysis in presence of boric acid, rate constant was evaluated at the pH 9.5. The data set is classed as ADME. As to conditions: buffer.
Data set [10] in a line: Tested for hydrolysis in presence of boric acid by UV spectrophotometry, dissociation constant was evaluated at the pH < 8. Type of data set: ADME.
A short description of data set [11]: Tested for hydrolysis in presence of phenylboronic acid, rate constant was evaluated at the pH 9.5. The data set is classed as ADME. The following applies: buffer.

For the molecule `O=C(Oc1ccc([N+](=O)[O-])cc1)c1cccc(O)c1O`, the K1 in data set [1] came out at 0.000033 s⁻¹. This molecule also had a K2 in data set [1] of 0.00026 s⁻¹. Further, the Ki in [2] was found to be 250 µM; in data set [5], 230 µM; in data set [6] it was 380 µM; on Chymotrypsinogen A [7], 40000 µM; on Chymotrypsinogen A [8], 200 µM. In addition, the pKa in [3] is 8.8. Besides, the KB in [4] came to 0.000018 s⁻¹; in data set [9] it was 0.000022 s⁻¹; in data set [10], 0.00005 s⁻¹; in data set [11], 0.000017 s⁻¹.

The pKa is the pH at which an ionisable group is half protonated. Read a high pKa as a group that holds its proton tightly.
